Source: patent US8501789B2, “Use of salicylaldehyde isonicotinoyl hydrazone (SIH) for protection against retinal disease” (The Trustees of the University of Pennsylvania, priority 2007, dated 2013)
Read-outs that look alike come from different tables or passages of the source.

Assays:
ARPE-19 cells [1] = type: cell-based; conditions: for 5 mM H2O2 cytotoxicity: LDH release and Live/Dead
Method: Red indicates dead cells as detected by ethidium bromide homodimer fluorescence. Green indicates live cells as detected by calcein fluorescence;
(§1) Human adult RPE cells (ARPE-19 cell line from ATCC) were cultured until confluent in 24-well Falcon plates in 1:1 DMEM High Glucose with L-Glutamine and Ham's F12 media (Invitrogen, Carlsbad, Calif.) supplemented with 10% FBS (Hyclone, Logan, Utah). For labile iron detection ARPE cells were stably transfected with a pcDNA3.1 plasmid with an IRE-GFP insert (gift of Drs. Sangwon Kim and Sol Snyder, Johns Hopkins) as a reporter for intracellular iron levels. These cells were named iron-reporting ARPE (iRPE) cells. Efficacy of labile iron chelation was tested by adding different concentrations of SIH to the iron-free MEM medium on iRPE cells and assessing decrease in GFP fluorescence as a measure of reduction in intracellular iron levels at the 24 h time point. Epifluorescence microscopy was performed with a Nikon TE-300 microscope (Nikon Inc., Japan) and SpotRT Slider camera (Diagnostic Instruments, Inc., Sterling Heights, Mich.) with ImagePro Plus software, version 4.1 (Media Cybernetics, Silver Spring, Md.).
(§2) To evaluate SIH's cytoprotective properties, SIH at different concentrations was applied to confluent ARPE-19 cells four hrs prior to the addition of H2O2, staurosporine or anti-Fas antibody. Hydrogen peroxide (30% H2O2 from Sigma, St. Louis, Mo.) at final concentration ranging from 1 to 5 mM, Staurosporine (1 mM solution from Sigma) at 100-500 nM final concentration or aFas antibody (Upstate-Millipore, Billerica, Mass.) at 1 μg/mL final concentration were mixed with the indicated concentrations of SIH immediately before applying to ARPE-19 cells. All reagents were dissolved in Minimal Essential Medium (MEM, Invitrogen) as indicated and were applied rapidly and uniformly following two washing steps in HBSS.
Cell death was assayed after 24 hrs using the LDH Release Assay Kit (Roche, Basel, Switzerland). Cytotoxicity was calculated using the ratio between maximum LDH release in 2% Triton X100-treated cells and minimum LDH release in cells incubated in MEM. Visualization of cell death was performed using the LIVE/DEAD Viability/Cytotoxicity kit (Invitrogen).

[2] = tested on: intracellular labile iron levels in ARPE-19 cells stably transfected with the IRE-GFP reporter (iRPE); assay: Labile iron chelation in IRE-GFP iron-reporting ARPE (iRPE) cells, GFP fluorescence; type: cell-based, Human; conditions: for GFP fluorescence (labile iron level): iRPE cells, 24 h, iron-free MEM
Method: Fluorescence intensity indicates relative intracellular iron levels. […] Images are representative of results from 3 independent experiments and taken using identical exposure parameters;
as §1, with “Efficacy of labile iron chelation was tested by adding different concentrations of SIH to the iron-free MEM medium on iRPE cells and assessing decrease in GFP fluorescence as a measure of reduction in intracellular iron levels at the 24 h time point.” left out
To quantify the labile iron pool, an iron-reporting RPE cell line (iRPE) was first generated, wherein fluorescence green fluorescent protein reflects labile iron levels. This was accomplished by making a stable cell line with the plasmid IRE-GFP (gift of Sangwon Kim and Sol Snyder). The iron responsive element (IRE) sequence in the 5′ untranslated region of the mRNA is bound by iron regulatory proteins only when labile iron levels are low, leading to inhibition of GFP translation. The fluorescence of iRPE cells treated with different concentrations of SIH for 24 h was determined (FIG. 2).

[3] = tested on: ARPE-19 cells that had accumulated A2E; assay: A2E/blue light-induced cell death, MTT assay; type: cell-based
Method: Graphs show ARPE-19 cell viability measured by the MTT assay. Increased absorbance indicates increased viability. (A) Cells were incubated with the indicated concentrations of SIH-MEM for 4 h, irradiated with blue light for 20 min in DPBS-SIH, and incubated in MEM-SIH for 24 hr before performing MTT assay. (B) Cells were pre-treated with MEM-SIH for 4 h, irradiated with blue light for 20 min in DPBS and incubated in MEM for 24 h. (C) Cells were irradiated by blue light for 20 min in DPBS and SIH-MEM was applied immediately after irradiation and maintained for 24 hrs. (D) Cells were irradiated with blue light for 20 min in DPBS and SIH-MEM was applied 1 h after irradiation and maintained for 23 h before performing MTT assay. For all graphs, relative to no SIH, * p<0.05, ** p<0.01, *** p<0.001;
For blue light irradiation experiments ARPE-19 cells devoid of endogenous lipofuscin were grown in complete medium (DMEM with 10% fetal calf serum and supplements) as previously described. At confluence the cells were allowed to accumulate A2E from a 10 μM concentration delivered in the culture medium over a 2 week period.
ARPE-19 cells that had accumulated A2E were treated with SIH in MEM for 4 hrs unless otherwise indicated. The SIH/MEM was subsequently exchanged for DPBS, the cells were irradiated at 430 nm for 20 min and then returned to complete medium and incubated for 24 hrs. Variations on this paradigm included experiments in which exposure to SIH/MEM was continued during illumination at 430 nm and for 24 hr thereafter; and experiments in which cells were not pre-incubated with SIH but instead were treated with SIH/MEM beginning either immediately after irradiation and continuing for 24 hrs or beginning 1 hr after irradiation and continuing for 23 hrs. In all experiments controls included A2E-laden irradiated cells that were not treated with SIH, cells that received no treatment (A2E-free, non-irradiated, incubation with MEM in the absence of SIH) and cells treated only with SIH.
In blue light irradiation experiments cell death was assayed by the 3-(4,5-dimethylthiazol-2-yl)-2,5-diphenyltetrazolium bromide assay, a measure of the ability of healthy cells to cleave the yellow tetrazolium salt MTT to purple formazan crystals. Briefly, following the post-illumination incubation described above, 20 uL of MTT labeling reagent (Roche Diagnostics Corp, Indianapolis, Ind.) was added to 0.2 mL of culture medium in each well and after a 4 hr incubation, the labeling reagent was replaced with 200 uL of solubilization solution for an overnight incubation. After centrifugation at 13,000 rpm for 2 min, supernatants were measured spectrophotometrically. A decrease in the absorbance (570 nm) of reduced MTT was indicative of diminished cellular viability.

ARPE-19 cells [4] = assay: Anti-Fas antibody (aFas)-induced cell death, LDH release assay; type: cell-based, Human; conditions: SIH beginning 4 hrs before treatment with aFas
Method: All reagents were dissolved in Minimal Essential Medium (MEM, Invitrogen) as indicated and were applied rapidly and uniformly following two washing steps in HBSS. Cell death was assayed after 24 hrs using the LDH Release Assay Kit (Roche, Basel, Switzerland). Cytotoxicity was calculated using the ratio between maximum LDH release in 2% Triton X100-treated cells and minimum LDH release in cells incubated in MEM.

ARPE-19 cells [5] = assay: Staurosporine-induced cell death, LDH release and LIVE/DEAD assay; type: cell-based, Human
Method: as §2, with “(A) Graph of LDH release following exposure of ARPE-19 cells to varying concentrations of staurosporine. […] (B) Graph of LDH release following exposure of ARPE-19 cells to 200 nM staurosporine plus different concentrations of SIH. […] (C) Fluorescence photomicrograph of cells labeled with the LIVE/DEAD assay following treatment with staurosporine and/or SIH as indicated; To” for “To”, “HBSS. Cell death was assayed after 24 hrs using the LDH Release Assay Kit (Roche, Basel, Switzerland). Cytotoxicity was calculated using the ratio between maximum LDH release in 2% Triton X100-treated cells and minimum LDH release in cells incubated in MEM. Visualization of cell death was performed using the LIVE/DEAD Viability/Cytotoxicity kit (Invitrogen).” for “HBSS.”

ARPE-19 cells [6] = assay: Intracellular ROS generation, dihydrorhodamine 123 fluorescence; type: cell-based, Human
Method: Level of ROS generation is detected by dihydrorhodamine 123 (green fluorescence) in cells treated with staurosporine and/or 3 μM SIH as indicated. Mitotracker dye (red fluorescence) indicates location of mitochondria; and
Intracellular ROS generation was measured in cultured cells by using the fluorescent probe dihydrorhodamine 123 (DHR123). Mitochondria were localized with Mitotracker Red 580 (Molecular Probes, Eugene, Oreg.). After 30 min of staurosporine exposure with our without SIH, cells were incubated with staurosporine +/−SIH in the presence of 10 μM DHR123 and 2 μM Mitotracker Red 580 at 37° C. for 15 min. DHR fluoresces and localizes to mitochondria when oxidized by ROS to the positively charged rhodamine 123^33. Mitotracker dye passively diffuses across the plasma membrane and specifically accumulates in active mitochondria.
To test whether iron contributes to this ROS production, and whether a decrease in mitochondrial ROS might be a mechanism of SIH protection, ROS were detected with rhodamine 123 after 30 min of staurosporine treatment. In the presence of ROS, non-fluorescent dihydrorhodamine 123 is converted into highly fluorescent rhodamine 123.

ARPE-19 cells [7] = type: cell-based, Human
[8] = UV/VIS spectra of SIH, H2O2 and their mixture (chemical interaction); type: physicochemical

Question: Which cell death (ARPE-19 cells [1]; 5 mM H2O2, 24 h, LDH release and Live/Dead assay) does the source give for `OO` [H2O2, hydrogen peroxide, reference compound] here?
Answer: 100%

Question: Which “GFP fluorescence (labile iron level)” value ([2]; 3 μM SIH) does the source give for `O=C(NN=Cc1ccccc1O)c1ccncc1` [SIH, salicylaldehyde isonicotinoyl hydrazone] here?
Answer: decreased significantly

Question: What about the “GFP fluorescence (labile iron level)” value ([2]; 10 μM SIH) of the same molecule?
Answer: decreased significantly

Question: And the “GFP fluorescence (labile iron level)” value ([2]; 50 μM SIH)?
Answer: close to the level of untreated control

Question: And the “GFP fluorescence (labile iron level)” value ([2]; 100 μM SIH)?
Answer: close to the level of untreated control

Question: What about the “GFP fluorescence (labile iron level)” value ([2]; 1 mM SIH) of the same molecule?
Answer: decreased slightly

Question: What about the iRPE fluorescence levels ([2]; iron-containing medium DMEM-F12 with 10% fetal calf serum) of the same molecule?
Answer: decreased the fluorescence

Question: And the “5 mM H2O2 cytotoxicity” value (ARPE-19 cells [1]; 5 μM SIH before H2O2 and mixed with H2O2, 24 h)?
Answer: completely abolished

Question: And the “5 mM H2O2 cytotoxicity” value (ARPE-19 cells [1]; 10 μM SIH before H2O2 and mixed with H2O2, 24 h)?
Answer: completely abolished

Question: What about the “cytoprotection against H2O2” value (ARPE-19 cells [1]; SIH applied 1 h after H2O2 (data not shown)) of the same molecule?
Answer: no protection

Question: What about the “cytoprotection against H2O2” value (ARPE-19 cells [1]; SIH applied together with H2O2 but without SIH pre-treatment) of the same molecule?
Answer: Diminished cytoprotection

Question: What about the “cytoprotection against H2O2” value (ARPE-19 cells [1]; SIH pre-incubated with ferric ammonium citrate in a 2:1 molar ratio (data not shown)) of the same molecule?
Answer: no protection

Question: And the “protection of cell viability (MTT)” value ([3]; SIH applied 1 hr after light exposure)?
Answer: partial protection

Question: And the “cell viability (MTT)” value ([3]; SIH before, during, or as late as 1 hr after blue light exposure)?
Answer: cell viability was increased

Question: What about the “cell viability (MTT)” value ([3]; SIH present before, during, and after light exposure) of the same molecule?
Answer: greatest increase in cell viability

Question: What about the SIH-mediated toxicity ([3]; cells incubated with SIH but not exposed to A2E or blue light) of the same molecule?
Answer: No SIH-mediated toxicity

Question: What about the “cell death caused by Fas activation (LDH release)” value (ARPE-19 cells [4]) of the same molecule?
Answer: reduced cell death

Question: And the “cell viability (LDH release)” value (ARPE-19 cells [5]; SIH 4 h before and through 24 h of 200 nM staurosporine)?
Answer: increased in an SIH concentration-dependent manner

Question: What about the “cell viability (LDH release)” value (ARPE-19 cells [5]; SIH 4 h before and through 24 h of 500 nm staurosporine (not shown)) of the same molecule?
Answer: increased in an SIH concentration-dependent manner

Question: And the “red (dead) cells, live/dead fluorescent imaging” value (ARPE-19 cells [5]; staurosporine plus 5 μM SIH)?
Answer: very few or none

Question: And the “red (dead) cells, live/dead fluorescent imaging” value (ARPE-19 cells [5]; staurosporine plus 10 μM SIH)?
Answer: very few or none

Question: What about the “SIH concentration of greatest cytoprotective effect” value (ARPE-19 cells [5]; staurosporine-induced cell death) of the same molecule?
Answer: 10 µM

Question: And the “staurosporine-induced rhodamine 123 fluorescence (ROS)” value (ARPE-19 cells [6]; 3 μM SIH)?
Answer: diminished

Question: What about the “carbonyl levels in total protein extracts” value (ARPE-19 cells [7]; H2O2-treated cells, 5 μM SIH, 24 h) of the same molecule?
Answer: did not affect

Question: And the “carbonyl levels in mitochondria-enriched fractions” value (ARPE-19 cells [7]; cells treated for 24 h with H202, 5 μM SIH)?
Answer: more pronounced decrease

Question: What about the “carbonyl levels in mitochondria-enriched fractions” value (ARPE-19 cells [7]; cells treated for 24 h with staurosporine, 5 μM SIH) of the same molecule?
Answer: more pronounced decrease

Question: And the “carbonyls in total protein extracts” value (ARPE-19 cells [7]; staurosporine-treated cells, 5 μM SIH, 24 h)?
Answer: small decrease

Question: What about the “changes in spectroscopic properties of SIH-H2O2 mixture compared with SIH and H2O2 alone” value [8] of the same molecule?
Answer: did not detect any changes

Question: For `CN[C@@H]1C[C@H]2O[C@@](C)([C@@H]1OC)n1c3ccccc3c3c4c(c5c6ccccc6n2c5c31)C(=O)NC4` [staurosporine, reference compound], which “cell death (LDH release)” value (ARPE-19 cells [5]; 200 nM staurosporine) is on record?
Answer: significant cell death

Question: What about the “cell death (LDH release)” value (ARPE-19 cells [5]; 500 nM staurosporine) of the same molecule?
Answer: significant cell death

Question: What about the “fluorescence of rhodamine 123 (ROS)” value (ARPE-19 cells [6]; 200 nM staurosporine for 30 min, then dihydrorhodamine 123 for 15 min) of the same molecule?
Answer: increased fluorescence

Question: And the “fluorescence of rhodamine 123 (ROS)” value (ARPE-19 cells [6]; 500 nM staurosporine)?
Answer: greater increase in fluorescence
